Data published in patent US20250170141A1, “MRGPRX2 MODULATORS AND RELATED METHODS OF TREATMENT” (Escient Pharmaceuticals, Inc., priority 2023, published 2025).

Biological target: T1, human MRGPRX2 (Homo sapiens, UniProt Q96LB1)
T1 construct: expressed in transfected cells; host or cells: CHO cells, stably transfected (G418 and Hygromycin B selection)
T1 sequence (Q96LB1 1-330): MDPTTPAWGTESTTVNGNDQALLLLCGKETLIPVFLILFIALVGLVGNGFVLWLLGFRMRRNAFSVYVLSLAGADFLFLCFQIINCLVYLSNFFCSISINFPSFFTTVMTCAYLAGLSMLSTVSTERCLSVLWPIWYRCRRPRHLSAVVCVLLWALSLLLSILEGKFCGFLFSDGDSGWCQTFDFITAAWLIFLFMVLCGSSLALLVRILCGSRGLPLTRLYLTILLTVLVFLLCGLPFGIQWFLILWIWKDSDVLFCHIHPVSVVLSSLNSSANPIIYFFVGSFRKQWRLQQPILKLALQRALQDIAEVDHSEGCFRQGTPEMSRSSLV
Test: MRGPRX2 activity: IP-One Gq HTRF assay in CHO cells, antagonism versus 0.3 uM Cortistatin-14
Type: cell-based
Details: versus 0.3 uM Cortistatin-14 agonist, CHO cells expressing human MRGPRX2, read-out: MRGPRX2 Antagonist Activity
Description: CHO cells stably transfected to express human MRGPRX2 were maintained in an incubator at 37° C. with 5% CO2 and grown in F12 (HAM) media with 10% fetal bovine serum (FBS), 1% Glutamax, 1% penicillin/streptomycin, 800 μg/mL Geneticin (G418), and 300 μg/mL Hygromycin B.
Cells were plated in a 384-well assay plate at 20,000 cells per well in 12 μL of Opti-MEM and kept in an incubator overnight. On the day of the assay, compounds solubilized at 10 mM in DMSO were added as a 10-point curve (30 uM final top concentration with 1:3 serial dilutions) using a Tecan D300E digital dispenser. Agonists were diluted in assay buffer (final concentrations of 5.7 mM Tris-HCl, 43 mM NaCl, 50 mM LiCl, pH=8) and 2 μL of the agonist Cortistatin-14 (CPC Scientific, catalog CORT-002) are added to each well. Final concentrations of agonists were 0.3 μM Cortistatin. Final concentrations of DMSO were kept consistent across the plate. Plates were incubated in the dark for 1 h at 37° C. and then for 1 h at room temperature. IP-1 standards and HTRF detection reagents were added according to the IP-One—Gq Kit purchased from Cisbio (part number 62IPAPEJ) and incubated in the dark for 1 h at room temperature. The plate was read on a Molecular Devices SpectraMax iD5 plate reader. The HTRF ratio was calculated from the raw data and graphed using GraphPad Prism to calculate an IC50 value for each compound.
The activity ranges are denoted as follows: “+++++” denotes antagonist activity <100 nM; “++++” denotes antagonist activity between 100 and 500 nM; “+++” denotes activity between 501 and 1000 nM; “++” denotes activity between 1001 and 2500 nM; and “+” denotes activity >2500 nM.

Compound | IC50 [µM]
O=S1(=O)N=C(NCc2ncccc2F)Nc2c1cc(Cl)c(F)c2Oc1ccccc1Cl [Compound 1-47, 7-chloro-5-(2-chlorophenoxy)-6-fluoro-3-(((3-fluoropyridin-2-yl)methyl)amino)-4H-benzo[e][1,2,4]thiadiazine 1,1-dioxide] | 0.501 to 1
CC(c1ccccc1F)c1c(F)ccc2c1NC(NCc1cccc(F)c1)=NS2(=O)=O (stereo not shown) [Compound 9-4, 6-fluoro-3-((3-fluorobenzyl)amino)-5-(1-(2-fluorophenyl)ethyl)-4H-benzo[e][1,2,4]thiadiazine 1,1-dioxide] | < 0.1
O=C(c1ccccc1Cl)c1c(F)ccc2c1NC(NCc1ncccc1F)=NS2(=O)=O [Compound 16-6, (2-chlorophenyl)(6-fluoro-3-(((3-fluoropyridin-2-yl)methyl)amino)-1,1-dioxido-4H-benzo[e][1,2,4]thiadiazin-5-yl)methanone] | 0.1 to 0.5
O=S1(=O)N=C(NCc2cccc(F)n2)Nc2c1ccc(F)c2Oc1ccccc1Cl [Compound 2-4, 5-(2-chlorophenoxy)-6-fluoro-3-(((6-fluoropyridin-2-yl)methyl)amino)-4H-benzo[e][1,2,4]thiadiazine 1,1-dioxide] | < 0.1
COc1ccc(F)c(CNC2=NS(=O)(=O)c3ccc(F)c(Oc4ccccc4Cl)c3N2)c1 [Compound 1-20, 5-(2-chlorophenoxy)-6-fluoro-3-((2-fluoro-5-methoxybenzyl)amino)-4H-benzo[e][1,2,4]thiadiazine 1,1-dioxide] | 1 to 2.5
O=S1(=O)N=C(NCc2cnccc2Cl)Nc2c(Cc3ccccc3Cl)cccc21 [Compound 12-32, 5-(2-chlorobenzyl)-3-(((4-chloropyridin-3-yl)methyl)amino)-4H-benzo[e][1,2,4]thiadiazine 1,1-dioxide] | < 0.1
O=S1(=O)N=C(NCc2ncccc2F)Nc2c1ccc(F)c2Oc1cccc(F)c1F [Compound 1-40, 5-(2,3-difluorophenoxy)-6-fluoro-3-(((3-fluoropyridin-2-yl)methyl)amino)-4H-benzo[e][1,2,4]thiadiazine 1,1-dioxide] | 0.1 to 0.5
O=S1(=O)N=C(NCc2ncc(F)cc2F)Nc2c1ccc(F)c2Oc1ccccc1Cl [Compound 1-14, 5-(2-chlorophenoxy)-3-(((3,5-difluoropyridin-2-yl)methyl)amino)-6-fluoro-4H-benzo[e][1,2,4]thiadiazine 1,1-dioxide] | < 0.1
Cc1cc(F)c(Oc2ccccc2Cl)c2c1S(=O)(=O)N=C(NCc1ncccc1F)N2 [Compound 1-45, 5-(2-chlorophenoxy)-6-fluoro-3-(((3-fluoropyridin-2-yl)methyl)amino)-8-methyl-4H-benzo[e][1,2,4]thiadiazine 1,1-dioxide] | 0.1 to 0.5
Cc1ccc(CNC2=NS(=O)(=O)c3cccc(Cc4ccccc4Cl)c3N2)c(Cl)c1 [Compound 12-5, 3-((2-chloro-4-methylbenzyl)amino)-5-(2-chlorobenzyl)-4H-benzo[e][1,2,4]thiadiazine 1,1-dioxide] | < 0.1
CC(c1ccc(S(C)(=O)=O)cc1)c1c(F)ccc2c1NC(NCc1cccc(F)c1)=NS2(=O)=O (stereo not shown) [Compound 22-20, 6-fluoro-3-((3-fluorobenzyl)amino)-5-(1-(4-(methylsulfonyl)phenyl)ethyl)-4H-benzo[e][1,2,4]thiadiazine 1,1-dioxide] | 0.1 to 0.5
Cc1ccc(C(C)c2c(F)ccc3c2NC(NCc2cccc(F)c2)=NS3(=O)=O)cc1 (stereo not shown) [Compound 22-22, 6-fluoro-3-((3-fluorobenzyl)amino)-5-(1-(p-tolyl)ethyl)-4H-benzo[e][1,2,4]thiadiazine 1,1-dioxide] | 0.1 to 0.5
Cc1cccc(C)c1Cc1c(F)ccc2c1NC(NCc1ncccc1F)=NS2(=O)=O [Compound 5-1, 5-(2,6-dimethylbenzyl)-6-fluoro-3-(((3-fluoropyridin-2-yl)methyl)amino)-4H-benzo[e][1,2,4]thiadiazine 1,1-dioxide] | < 0.1
CC(c1ccccc1F)c1c(F)ccc2c1NC(NCc1ccccc1F)=NS2(=O)=O (stereo not shown) [Compound 7-5, 6-fluoro-3-((2-fluorobenzyl)amino)-5-(1-(2-fluorophenyl)ethyl)-4H-benzo[e][1,2,4]thiadiazine 1,1-dioxide] | < 0.1
O=S1(=O)N=C(NCc2ccc(F)cc2F)Nc2c1ccc(F)c2Oc1ccccc1Cl [Compound 1-29, 5-(2-chlorophenoxy)-3-((2,4-difluorobenzyl)amino)-6-fluoro-4H-benzo[e][1,2,4]thiadiazine 1,1-dioxide] | < 0.1
Cc1c(F)cccc1CNC1=NS(=O)(=O)c2ccc(F)c(C(C)c3cccc(Cl)c3Cl)c2N1 (stereo not shown) [Compound 8-3, 5-(1-(2,3-dichlorophenyl)ethyl)-6-fluoro-3-((3-fluoro-2-methylbenzyl)amino)-4H-benzo[e][1,2,4]thiadiazine 1,1-dioxide] | < 0.1
CC(c1ccc2ccccc2c1)c1c(F)ccc2c1NC(NCc1cccc(F)c1)=NS2(=O)=O (stereo not shown) [Compound 22-8, 6-fluoro-3-((3-fluorobenzyl)amino)-5-(1-(naphthalen-2-yl)ethyl)-4H-benzo[e][1,2,4]thiadiazine 1,1-dioxide] | 0.1 to 0.5
Cc1cccc(C)c1Cc1cccc2c1NC(NCc1ccccc1F)=NS2(=O)=O [Compound 6-17, 5-(2,6-dimethylbenzyl)-3-((2-fluorobenzyl)amino)-4H-benzo[e][1,2,4]thiadiazine 1,1-dioxide] | < 0.1
N#Cc1ccccc1Oc1c(F)ccc2c1NC(NCc1ncccc1F)=NS2(=O)=O [Compound 1-8, 2-((6-fluoro-3-(((3-fluoropyridin-2-yl)methyl)amino)-1,1-dioxido-4H-benzo[e][1,2,4]thiadiazin-5-yl)oxy)benzonitrile] | < 0.1
N#Cc1ccc(Oc2c(F)ccc3c2NC(NCc2ncccc2F)=NS3(=O)=O)cc1 [Compound 2-12, 4-((6-fluoro-3-(((3-fluoropyridin-2-yl)methyl)amino)-1,1-dioxido-4H-benzo[e][1,2,4]thiadiazin-5-yl)oxy)benzonitrile] | 1 to 2.5
Cc1cc(F)ccc1CNC1=NS(=O)(=O)c2cccc(Cc3ccccc3Cl)c2N1 [Compound 12-7, 5-(2-chlorobenzyl)-3-((4-fluoro-2-methylbenzyl)amino)-4H-benzo[e][1,2,4]thiadiazine 1,1-dioxide] | < 0.1
CC(c1ccccc1)c1c(F)ccc2c1NC(NCc1cccc(F)c1)=NS2(=O)=O (stereo not shown) [Compound 22-1, 6-fluoro-3-((3-fluorobenzyl)amino)-5-(1-phenylethyl)-4H-benzo[e][1,2,4]thiadiazine 1,1-dioxide] | < 0.1
O=S1(=O)N=C(NCc2ccncc2F)Nc2c(Cc3ccccc3Cl)cccc21 [Compound 12-23, 5-(2-chlorobenzyl)-3-(((3-fluoropyridin-4-yl)methyl)amino)-4H-benzo[e][1,2,4]thiadiazine 1,1-dioxide] | < 0.1
CC(c1c(F)ccc2c1NC(NCc1cccc(F)c1)=NS2(=O)=O)C1CCCCC1 (stereo not shown) [Compound 22-5, 5-(1-cyclohexylethyl)-6-fluoro-3-((3-fluorobenzyl)amino)-4H-benzo[e][1,2,4]thiadiazine 1,1-dioxide] | < 0.1
O=S1(=O)N=C(NCc2ncccc2F)Nc2c1ccc(F)c2Oc1cc(Cl)ccc1Cl [Compound 1-38, 5-(2,5-dichlorophenoxy)-6-fluoro-3-(((3-fluoropyridin-2-yl)methyl)amino)-4H-benzo[e][1,2,4]thiadiazine 1,1-dioxide] | < 0.1
